Laboratory results taken from the Deep4Chem optical property database.
Each block holds one compound with its values, some of them ahead of it.

Experiment: solvent given as SMILES

Structure (SMILES): CCn1c2sccc2c2c3nsnc3c3c4ccsc4n(CC)c3c21
absorption maximum (in C1CCOC1): 424 nm
absorption maximum (in CCOC(C)=O): 422 nm
absorption maximum (in CN(C)C=O): 430 nm
absorption maximum (in Cc1ccccc1): 423 nm
absorption maximum (in ClCCl): 425 nm

Structure (SMILES): CCCn1c(-c2cc(-c3nc4ccccc4n3CCC)cc(-c3nc4ccccc4n3CCC)c2)nc2ccccc21
absorption maximum (in CS(C)=O): 301.5 nm

Structure (SMILES): c1ccc(-c2nc(-c3ccccc3)nc(-c3ccc(-n4c5ccccc5c5cc(-n6c7ccccc7c7ccccc76)ccc54)cc3)n2)cc1
absorption maximum (in Cc1ccccc1): 367 nm

Structure (SMILES): Cc1ccc(/C(C#N)=C/c2cc(/C=C(\C#N)c3ccc(C)cc3)c(-c3ccc(N(c4ccccc4)c4ccccc4)cc3)cc2-c2ccc(N(c3ccccc3)c3ccccc3)cc2)cc1
absorption maximum (in C1CCCCC1): 385 nm
absorption maximum (in C1CCOC1): 391 nm
absorption maximum (in CCCCCC): 385 nm
absorption maximum (in CCOC(C)=O): 393 nm
absorption maximum (in Cc1ccccc1): 391 nm
absorption maximum (in ClC(Cl)Cl): 385 nm
absorption maximum (in ClCCl): 393 nm

Structure (SMILES): Cc1ccc(C2=C3C=CC(/C=C/c4ccccc4)=[N+]3[B-](F)(F)n3c(/C=C/c4ccccc4)ccc32)cc1
absorption maximum (in C1CCCCC1): 630 nm
absorption maximum (in C1CCOC1): 632 nm
absorption maximum (in C1COCCO1): 633 nm
absorption maximum (in CO): 626 nm
absorption maximum (in ClC(Cl)Cl): 635 nm

Structure (SMILES): C/C(=C\c1ccc(Cl)cc1)c1nc2ccccc2o1
absorption maximum (in C1CCCCC1): 320 nm
absorption maximum (in CO): 320 nm

Structure (SMILES): Cc1ccccc1
absorption maximum (in C1CCCCC1): 256.48 nm

Structure (SMILES): C[Si](C)(C)C#Cc1cc2ccc3cc(C#C[Si](C)(C)C)cc4ccc(c1)c2c34
absorption maximum (in Cc1ccccc1): 407 nm

Structure (SMILES): O=C1c2ccccc2S(=O)(=O)c2ccc(-n3c4ccccc4c4ccccc43)cc21
absorption maximum (in C1CCOC1): 404 nm
absorption maximum (in CCCCCC): 404 nm
absorption maximum (in Cc1ccccc1): 404 nm
absorption maximum (in ClC(Cl)Cl): 404 nm
absorption maximum (in ClCCl): 404 nm

Structure (SMILES): COc1ccc(-c2nc3ccccc3oc2=O)cc1
absorption maximum (in c1ccccc1): 372 nm

Structure (SMILES): c1ccc2c(c1)Nc1ccccc1B2c1c2ccccc2cc2ccccc12
absorption maximum (in ClCCl): 394 nm
absorption maximum (in c1ccccc1): 394 nm

Structure (SMILES): CC1(C)c2ccccc2N(c2cc[n+]3c(c2)-c2ccccc2O[B-]3(F)F)c2ccccc21
absorption maximum (in Cc1ccccc1): 358 nm

Structure (SMILES): CCCCN1C(=O)C(=C/C=C/C=C/C=C2N(CCCC)c3ccccc3N2CCCC)C(=O)N(CCCC)C1=S
absorption maximum (in CC#N): 540 nm
absorption maximum (in CCCCCC): 678 nm
absorption maximum (in CCO): 492 nm
absorption maximum (in CN(C)C=O): 549 nm
absorption maximum (in CO): 483 nm
absorption maximum (in Cc1ccccc1): 689 nm
absorption maximum (in ClC(Cl)Cl): 658 nm
absorption maximum (in ClCCl): 642 nm
absorption maximum (in OCC(F)(F)F): 464 nm

Structure (SMILES): COC(=O)c1nc2cnc(N)nc2n1Cc1ccccc1
absorption maximum (in C1COCCO1): 331 nm
absorption maximum (in CC#N): 330 nm
absorption maximum (in CO): 335 nm
absorption maximum (in ClCCl): 328 nm
absorption maximum (in O): 325 nm

Structure (SMILES): COc1nc(Nc2ccc3c4cccc5cccc(c6cccc2c63)c54)nc(OC)n1
absorption maximum (in C1COCCO1): 443 nm
absorption maximum (in CC#N): 444 nm
absorption maximum (in CCCCOCCCC): 442 nm
absorption maximum (in CCOC(C)=O): 441 nm

Structure (SMILES): COc1ccc(O)cc1C=O
absorption maximum (in CO): 355 nm
absorption maximum (in ClC(Cl)Cl): 349 nm

Structure (SMILES): Brc1ccc(-c2nc3sc4ccccc4c3s2)cc1
absorption maximum (in CS(C)=O): 353 nm

Structure (SMILES): C(=C\c1c2ccccc2cc2ccccc12)/c1ccc2ccccc2n1
absorption maximum (in CC1CCCCC1): 390 nm
absorption maximum (in CC#N): 390 nm

Structure (SMILES): CC(C)(C)c1ccc2c(c1)c1cc(C(C)(C)C)ccc1n2-c1ccc(C#Cc2ccc(C#Cc3ccc(C=C(C#N)C#N)cc3)cc2)cc1
absorption maximum (in ClCCl): 382 nm

Structure (SMILES): C1=Cc2ccc(N(c3ccccc3)c3cccc4ccccc34)cc2C2(c3cc(N(c4ccccc4)c4cccc5ccccc45)ccc31)c1ccccc1-c1ccccc12
absorption maximum (in ClCCl): 403 nm

Structure (SMILES): CN(C)c1ccc(C2=Nc3scc(-c4ccc([N+](=O)[O-])cc4)[n+]3[B-](F)(F)O2)cc1
absorption maximum (in C1CCOC1): 412 nm
absorption maximum (in CC#N): 411 nm
absorption maximum (in Cc1ccccc1): 415 nm
absorption maximum (in ClCCl): 417 nm

Structure (SMILES): COc1cc(OC)cc(C2=C(c3cc(OC)c(OC)c(OC)c3)C3=Nc4c(-c5cc(OC)c(OC)c(OC)c5)c(-c5cc(OC)cc(OC)c5)c(-c5ccc(C(C)(C)C)cc5)n4[B-](F)(F)[N+]3=C2c2ccc(C(C)(C)C)cc2)c1
absorption maximum (in Cc1ccccc1): 674 nm

Structure (SMILES): COc1cc(-c2ncc(-c3ccncc3)o2)cc(OC)c1OC
absorption maximum (in ClCCl): 326 nm

The next lines start with the values.

absorption maximum (in CO): 300 nm
Structure (SMILES): COc1ccc(-c2nc(-c3cccc(OC)c3)[nH]c2-c2ccc(OC)cc2)cc1

absorption maximum (in ClC(Cl)Cl): 388 nm
Structure (SMILES): O=C1O/C(=C2/C(=O)Oc3ccccc32)C(O)=C1c1ccccc1

absorption maximum (in C1CCOC1): 691 nm
absorption maximum (in CC#N): 687 nm
absorption maximum (in ClCCl): 700 nm
Structure (SMILES): CCC(CC)COC1=CC2=C3c4cc(OCC(CC)CC)c(-c5ccccc5)n4[B-](F)(F)[n+]4nnn(c43)[B-](F)(F)[N+]2=C1c1ccccc1

absorption maximum (in CCO): 379 nm
Structure (SMILES): CCN(CC)c1cc2oc3cc(O)c(F)cc3c(=O)c2cc1F

absorption maximum (in CC#N): 536 nm
absorption maximum (in CCCCCC): 556 nm
absorption maximum (in CCOC(C)=O): 545 nm
absorption maximum (in CO): 536 nm
absorption maximum (in ClCCl): 545 nm
Structure (SMILES): CCCSC1=[N+]2C(=C(c3ccccc3)c3ccc(SCCC)n3[B-]2(F)F)C=C1SC#N

absorption maximum (in C1COCCO1): 708 nm
Structure (SMILES): COc1ccc(/C=C/C2=CC(/C=C/c3ccc(OC)cc3)=[N+]3C2=C(c2ccc(-c4ccc5ccccc5n4)s2)c2c(/C=C/c4ccc(OC)cc4)cc(/C=C/c4ccc(OC)cc4)n2[B-]3(F)F)cc1

absorption maximum (in CN(C)C=O): 393 nm
Structure (SMILES): CCN(CC)c1ccc(-c2nc(Oc3ccc(-c4nc5ccc(Cl)cc5o4)cc3)nc(Oc3ccc(-c4nc5ccc(Cl)cc5o4)cc3)n2)cc1

absorption maximum (in O): 305 nm
Structure (SMILES): CCn1c(-c2ccc(-c3ccc(-c4ccc(-c5n(CC)c6ccccc6[n+]5CC)cc4)cc3)cc2)[n+](CC)c2ccccc21

absorption maximum (in ClCCl): 328 nm
Structure (SMILES): c1ccc(C2c3ccccc3-c3cc4c(cc32)-c2ccccc2C4c2ccccc2)cc1 (stereo not drawn)

absorption maximum (in ClC(Cl)Cl): 314 nm
Structure (SMILES): CCCCCCCCc1ccc(-n2c3c4ccccc4nc(-c4ccc(C#N)cc4)c3c3c2c2c(-c4ccc(C#N)cc4)nc4ccccc4c2n3-c2ccc(CCCCCCCC)cc2)cc1

absorption maximum (in CO): 422 nm
Structure (SMILES): c1ccc(N(c2ccccc2)c2ccc(-c3ncc(-c4cnc(-c5ccc(N(c6ccccc6)c6ccccc6)cc5)s4)s3)cc2)cc1

absorption maximum (in C1CCOC1): 362 nm
Structure (SMILES): c1ccc(-c2nc3c4ccccc4c4ccccc4c3n2-c2ccccc2)cc1

absorption maximum (in O): 430 nm
Structure (SMILES): CC(=O)Nc1ccc2c(c1)c(=O)c1cc(NC(C)=O)ccc1n2CCCCCC(=O)O

absorption maximum (in ClCCl): 455 nm
Structure (SMILES): COc1ccc(/C=C/c2nc(-c3ccc([N+](=O)[O-])cc3)[nH]c2/C=C/c2ccc(OC)cc2)cc1

absorption maximum (in C1CCCCC1): 382 nm
absorption maximum (in CC#N): 377 nm
absorption maximum (in CCO): 379 nm
absorption maximum (in c1ccccc1): 380 nm
Structure (SMILES): O=C1c2ccccc2-c2ccccc21

absorption maximum (in CC#N): 224 nm
absorption maximum (in CCCCCC): 222 nm
Structure (SMILES): COc1ccc(-n2c(C)ccc2C)cc1

absorption maximum (in C1CCOC1): 411 nm
Structure (SMILES): O=P(c1c2ccccc2cc2ccccc12)(c1c2ccccc2cc2ccccc12)c1c2ccccc2cc2ccccc12

absorption maximum (in ClC(Cl)Cl): 485 nm
Structure (SMILES): COc1ccc(-c2oc3cccc4c5c(-c6ccc(OC)c(OC)c6)/c(=N/S(=O)(=O)C(F)(F)F)oc6cccc(c2c34)c65)cc1OC

absorption maximum (in ClCCl): 464 nm
Structure (SMILES): CN(C)c1ccc(C2=C3C=C(c4ccc(C=O)cc4)S[C@]34c3ccccc3[C@H]2c2ccccc24)cc1

absorption maximum (in ClC(Cl)Cl): 703 nm
Structure (SMILES): O=C1c2ccc3c4c(NC5CCCCC5)cc5c6c(ccc(c7c(NC8CCCCC8)cc(c2c37)C(=O)N1C1CCCCC1)c64)C(=O)N(C1CCCCC1)C5=O
